In ChEMBL document CHEMBL1909046, “DrugMatrix in vitro pharmacology data”:

System: not listed separately
Assay: DRUGMATRIX: Platelet-Derived Growth Factor (PDGF) radioligand binding (ligand: [125I] PDGF)
Format: cell-based
Conditions: nih3t3; Not Active = under 50% inhibition at 10 µM

| Compound | IC50 | Ki |
| --- | --- | --- |
| O=NN(CCCl)C(=O)NC1CCCCC1 [LOMUSTINE] | Not Active | Not Active |
| Nc1nc2ccc(OC(F)(F)F)cc2s1 [RILUZOLE] | Not Active | Not Active |
| SODIUM NITROPRUSSIDE | Not Active | Not Active |
| Cc1noc(NS(=O)(=O)c2ccc(N)cc2)c1C [SULFISOXAZOLE] | Not Active | Not Active |
| Cc1cccc(N(C)C(=S)Oc2ccc3ccccc3c2)c1 [TOLNAFTATE] | Not Active | Not Active |
| Cc1oncc1C(=O)Nc1ccc(C(F)(F)F)cc1 [LEFLUNOMIDE] | Not Active | Not Active |
| CC[C@@H](CO)NC(=O)[C@@H]1C=C2c3cccc4[nH]cc(c34)C[C@H]2N(C)C1 [METHYLERGONOVINE] | Not Active | Not Active |
| CCOC(=O)N1CCC(=C2c3ccc(Cl)cc3CCc3cccnc32)CC1 [LORATADINE] | Not Active | Not Active |
| CC(C)(C)NC(=O)[C@@H]1C[C@@H]2CCCC[C@@H]2CN1C[C@@H](O)[C@H](Cc1ccccc1)NC(=O)[C@H](CC(N)=O)NC(=O)c1ccc2ccccc2n1 | Not Active | Not Active |
| CC(=O)[C@@]1(O)CC[C@H]2[C@@H]3C[C@H](C)C4=CC(=O)CC[C@]4(C)[C@H]3CC[C@@]21C | Not Active | Not Active |
| Nc1nc2nc[nH]c2c(=S)[nH]1 [THIOGUANINE] | Not Active | Not Active |
| COc1nc(C)nc(Cl)c1NC1=NCCN1 [MOXONIDINE] | Not Active | Not Active |
| C[C@@H]1CN(c2c(F)c(N)c3c(=O)c(C(=O)O)cn(C4CC4)c3c2F)C[C@H](C)N1 [SPARFLOXACIN] | Not Active | Not Active |
| N[C@@H](Cc1ccc(O)c(O)c1)C(=O)O [LEVODOPA] | Not Active | Not Active |

Molecular target: Substance-P receptor (Homo sapiens, UniProt P25103); further: in other assays of this panel Not Active means under 50% inhibition at 10 µM
Assay: not given
Format: cell membranes, CHO, Membrane
Conditions: cho

Chain of Substance-P receptor (P25103 whole entry): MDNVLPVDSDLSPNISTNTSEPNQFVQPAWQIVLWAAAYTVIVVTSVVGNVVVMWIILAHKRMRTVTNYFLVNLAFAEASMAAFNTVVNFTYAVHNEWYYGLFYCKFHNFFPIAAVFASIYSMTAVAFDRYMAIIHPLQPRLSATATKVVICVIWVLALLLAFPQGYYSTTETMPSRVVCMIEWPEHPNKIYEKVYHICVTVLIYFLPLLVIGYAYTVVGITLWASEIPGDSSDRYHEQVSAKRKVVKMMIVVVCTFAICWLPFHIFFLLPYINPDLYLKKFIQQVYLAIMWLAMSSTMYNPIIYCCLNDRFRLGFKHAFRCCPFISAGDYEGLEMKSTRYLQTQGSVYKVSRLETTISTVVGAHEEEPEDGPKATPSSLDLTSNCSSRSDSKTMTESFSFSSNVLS

| Compound | IC50 | Ki |
| --- | --- | --- |
| O=NN(CCCl)C(=O)NC1CCCCC1 [LOMUSTINE] | Not Active | – |
| Nc1nc2ccc(OC(F)(F)F)cc2s1 [RILUZOLE] | Not Active | – |
| SODIUM NITROPRUSSIDE | Not Active | Not Active |
| Cc1noc(NS(=O)(=O)c2ccc(N)cc2)c1C [SULFISOXAZOLE] | Not Active | – |
| Cc1cccc(N(C)C(=S)Oc2ccc3ccccc3c2)c1 [TOLNAFTATE] | Not Active | – |
| Cc1oncc1C(=O)Nc1ccc(C(F)(F)F)cc1 [LEFLUNOMIDE] | Not Active | – |
| CC[C@@H](CO)NC(=O)[C@@H]1C=C2c3cccc4[nH]cc(c34)C[C@H]2N(C)C1 [METHYLERGONOVINE] | Not Active | – |
| CCOC(=O)N1CCC(=C2c3ccc(Cl)cc3CCc3cccnc32)CC1 [LORATADINE] | Not Active | – |
| CC(C)(C)NC(=O)[C@@H]1C[C@@H]2CCCC[C@@H]2CN1C[C@@H](O)[C@H](Cc1ccccc1)NC(=O)[C@H](CC(N)=O)NC(=O)c1ccc2ccccc2n1 | Not Active | – |
| CC(=O)[C@@]1(O)CC[C@H]2[C@@H]3C[C@H](C)C4=CC(=O)CC[C@]4(C)[C@H]3CC[C@@]21C | Not Active | – |
| Nc1nc2nc[nH]c2c(=S)[nH]1 [THIOGUANINE] | Not Active | – |
| COc1nc(C)nc(Cl)c1NC1=NCCN1 [MOXONIDINE] | Not Active | – |
| C[C@@H]1CN(c2c(F)c(N)c3c(=O)c(C(=O)O)cn(C4CC4)c3c2F)C[C@H](C)N1 [SPARFLOXACIN] | Not Active | – |
| N[C@@H](Cc1ccc(O)c(O)c1)C(=O)O [LEVODOPA] | Not Active | – |

Molecular target: Matrix metalloproteinase-9 (Homo sapiens, UniProt P14780);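 further: inhibition of isolated MMP-9 enzyme activity toward a synthetic peptide substrate, from the DrugMatrix protease screening panel; in other assays of this panel Not Active means under 50% inhibition at 10 µM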
Assay: biochemical
Format: cell-based
Conditions: not given

Chain of Matrix metalloproteinase-9 (P14780 whole entry): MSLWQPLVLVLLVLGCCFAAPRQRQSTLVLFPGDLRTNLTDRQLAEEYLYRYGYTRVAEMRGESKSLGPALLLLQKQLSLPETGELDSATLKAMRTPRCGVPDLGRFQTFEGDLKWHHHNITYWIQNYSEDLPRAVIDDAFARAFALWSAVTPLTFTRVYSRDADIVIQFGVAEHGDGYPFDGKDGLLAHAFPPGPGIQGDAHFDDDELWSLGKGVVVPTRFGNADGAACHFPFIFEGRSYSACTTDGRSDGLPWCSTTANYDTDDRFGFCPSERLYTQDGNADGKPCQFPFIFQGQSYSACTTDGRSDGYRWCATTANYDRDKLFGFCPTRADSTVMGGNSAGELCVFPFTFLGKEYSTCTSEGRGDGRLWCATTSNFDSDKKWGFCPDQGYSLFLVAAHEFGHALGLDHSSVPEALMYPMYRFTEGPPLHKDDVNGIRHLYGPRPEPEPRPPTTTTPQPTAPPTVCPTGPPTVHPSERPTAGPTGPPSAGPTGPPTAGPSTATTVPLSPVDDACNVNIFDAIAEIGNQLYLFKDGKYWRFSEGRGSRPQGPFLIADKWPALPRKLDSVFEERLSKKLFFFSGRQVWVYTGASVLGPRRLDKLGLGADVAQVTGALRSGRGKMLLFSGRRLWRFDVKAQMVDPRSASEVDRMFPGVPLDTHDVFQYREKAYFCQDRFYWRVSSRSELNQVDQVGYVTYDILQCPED

| Compound | IC50 | Ki |
| --- | --- | --- |
| O=NN(CCCl)C(=O)NC1CCCCC1 [LOMUSTINE] | Not Active | – |
| Nc1nc2ccc(OC(F)(F)F)cc2s1 [RILUZOLE] | Not Active | – |
| SODIUM NITROPRUSSIDE | Not Active | Not Active |
| Cc1noc(NS(=O)(=O)c2ccc(N)cc2)c1C [SULFISOXAZOLE] | Not Active | – |
| Cc1cccc(N(C)C(=S)Oc2ccc3ccccc3c2)c1 [TOLNAFTATE] | Not Active | – |
| Cc1oncc1C(=O)Nc1ccc(C(F)(F)F)cc1 [LEFLUNOMIDE] | Not Active | – |
| CC[C@@H](CO)NC(=O)[C@@H]1C=C2c3cccc4[nH]cc(c34)C[C@H]2N(C)C1 [METHYLERGONOVINE] | Not Active | – |
| CCOC(=O)N1CCC(=C2c3ccc(Cl)cc3CCc3cccnc32)CC1 [LORATADINE] | Not Active | – |
| CC(C)(C)NC(=O)[C@@H]1C[C@@H]2CCCC[C@@H]2CN1C[C@@H](O)[C@H](Cc1ccccc1)NC(=O)[C@H](CC(N)=O)NC(=O)c1ccc2ccccc2n1 | Not Active | – |
| CC(=O)[C@@]1(O)CC[C@H]2[C@@H]3C[C@H](C)C4=CC(=O)CC[C@]4(C)[C@H]3CC[C@@]21C | Not Active | – |
| Nc1nc2nc[nH]c2c(=S)[nH]1 [THIOGUANINE] | Not Active | – |
| COc1nc(C)nc(Cl)c1NC1=NCCN1 [MOXONIDINE] | Not Active | – |
| C[C@@H]1CN(c2c(F)c(N)c3c(=O)c(C(=O)O)cn(C4CC4)c3c2F)C[C@H](C)N1 [SPARFLOXACIN] | Not Active | – |
| N[C@@H](Cc1ccc(O)c(O)c1)C(=O)O [LEVODOPA] | Not Active | – |

System: not listed separately
Assay: DRUGMATRIX: Glutamate, Kainate radioligand binding (ligand: [3H] Kainic acid)
Format: cell membranes, Rattus norvegicus, Wistar, Brain, Membrane
Conditions: Not Active = under 50% inhibition at 10 µM

| Compound | IC50 | Ki |
| --- | --- | --- |
| O=NN(CCCl)C(=O)NC1CCCCC1 [LOMUSTINE] | Not Active | Not Active |
| Nc1nc2ccc(OC(F)(F)F)cc2s1 [RILUZOLE] | Not Active | Not Active |
| SODIUM NITROPRUSSIDE | Not Active | Not Active |
| Cc1noc(NS(=O)(=O)c2ccc(N)cc2)c1C [SULFISOXAZOLE] | Not Active | Not Active |
| Cc1cccc(N(C)C(=S)Oc2ccc3ccccc3c2)c1 [TOLNAFTATE] | Not Active | Not Active |
| Cc1oncc1C(=O)Nc1ccc(C(F)(F)F)cc1 [LEFLUNOMIDE] | Not Active | Not Active |
| CC[C@@H](CO)NC(=O)[C@@H]1C=C2c3cccc4[nH]cc(c34)C[C@H]2N(C)C1 [METHYLERGONOVINE] | Not Active | Not Active |
| CCOC(=O)N1CCC(=C2c3ccc(Cl)cc3CCc3cccnc32)CC1 [LORATADINE] | Not Active | Not Active |
| CC(C)(C)NC(=O)[C@@H]1C[C@@H]2CCCC[C@@H]2CN1C[C@@H](O)[C@H](Cc1ccccc1)NC(=O)[C@H](CC(N)=O)NC(=O)c1ccc2ccccc2n1 | Not Active | Not Active |
| CC(=O)[C@@]1(O)CC[C@H]2[C@@H]3C[C@H](C)C4=CC(=O)CC[C@]4(C)[C@H]3CC[C@@]21C | Not Active | Not Active |
| Nc1nc2nc[nH]c2c(=S)[nH]1 [THIOGUANINE] | Not Active | Not Active |
| COc1nc(C)nc(Cl)c1NC1=NCCN1 [MOXONIDINE] | Not Active | Not Active |
| C[C@@H]1CN(c2c(F)c(N)c3c(=O)c(C(=O)O)cn(C4CC4)c3c2F)C[C@H](C)N1 [SPARFLOXACIN] | Not Active | Not Active |
| N[C@@H](Cc1ccc(O)c(O)c1)C(=O)O [LEVODOPA] | Not Active | Not Active |

System: not listed separately
Assay: DRUGMATRIX: Calcium Channel Type L, Dihydropyridine radioligand binding (ligand: [3H] Nitrendipine)
Format: cell membranes, Rattus norvegicus, Wistar, Cerebral cortex, Membrane
Conditions: Not Active = under 50% inhibition at 10 µM

| Compound | IC50 | Ki |
| --- | --- | --- |
| O=NN(CCCl)C(=O)NC1CCCCC1 [LOMUSTINE] | Not Active | Not Active |
| Nc1nc2ccc(OC(F)(F)F)cc2s1 [RILUZOLE] | Not Active | Not Active |
| SODIUM NITROPRUSSIDE | Not Active | Not Active |
| Cc1noc(NS(=O)(=O)c2ccc(N)cc2)c1C [SULFISOXAZOLE] | Not Active | Not Active |
| Cc1cccc(N(C)C(=S)Oc2ccc3ccccc3c2)c1 [TOLNAFTATE] | Not Active | Not Active |
| Cc1oncc1C(=O)Nc1ccc(C(F)(F)F)cc1 [LEFLUNOMIDE] | Not Active | Not Active |
| CC[C@@H](CO)NC(=O)[C@@H]1C=C2c3cccc4[nH]cc(c34)C[C@H]2N(C)C1 [METHYLERGONOVINE] | Not Active | Not Active |
| CCOC(=O)N1CCC(=C2c3ccc(Cl)cc3CCc3cccnc32)CC1 [LORATADINE] | Not Active | Not Active |
| CC(C)(C)NC(=O)[C@@H]1C[C@@H]2CCCC[C@@H]2CN1C[C@@H](O)[C@H](Cc1ccccc1)NC(=O)[C@H](CC(N)=O)NC(=O)c1ccc2ccccc2n1 | Not Active | Not Active |
| CC(=O)[C@@]1(O)CC[C@H]2[C@@H]3C[C@H](C)C4=CC(=O)CC[C@]4(C)[C@H]3CC[C@@]21C | Not Active | Not Active |
| Nc1nc2nc[nH]c2c(=S)[nH]1 [THIOGUANINE] | Not Active | Not Active |
| COc1nc(C)nc(Cl)c1NC1=NCCN1 [MOXONIDINE] | Not Active | Not Active |
| C[C@@H]1CN(c2c(F)c(N)c3c(=O)c(C(=O)O)cn(C4CC4)c3c2F)C[C@H](C)N1 [SPARFLOXACIN] | Not Active | Not Active |
| N[C@@H](Cc1ccc(O)c(O)c1)C(=O)O [LEVODOPA] | Not Active | Not Active |

Molecular target: Prostaglandin G/H synthase 1 (Homo sapiens, UniProt P23219);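 further: inhibition of COX-1 enzyme activity, with arachidonic acid supplied as substrate; in other assays of this panel Not Active means under 50% inhibition at 10 µM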
Assay: biochemical
Format: tissue-based, Platelet
Conditions: platelet

Chain of Prostaglandin G/H synthase 1 (P23219 whole entry): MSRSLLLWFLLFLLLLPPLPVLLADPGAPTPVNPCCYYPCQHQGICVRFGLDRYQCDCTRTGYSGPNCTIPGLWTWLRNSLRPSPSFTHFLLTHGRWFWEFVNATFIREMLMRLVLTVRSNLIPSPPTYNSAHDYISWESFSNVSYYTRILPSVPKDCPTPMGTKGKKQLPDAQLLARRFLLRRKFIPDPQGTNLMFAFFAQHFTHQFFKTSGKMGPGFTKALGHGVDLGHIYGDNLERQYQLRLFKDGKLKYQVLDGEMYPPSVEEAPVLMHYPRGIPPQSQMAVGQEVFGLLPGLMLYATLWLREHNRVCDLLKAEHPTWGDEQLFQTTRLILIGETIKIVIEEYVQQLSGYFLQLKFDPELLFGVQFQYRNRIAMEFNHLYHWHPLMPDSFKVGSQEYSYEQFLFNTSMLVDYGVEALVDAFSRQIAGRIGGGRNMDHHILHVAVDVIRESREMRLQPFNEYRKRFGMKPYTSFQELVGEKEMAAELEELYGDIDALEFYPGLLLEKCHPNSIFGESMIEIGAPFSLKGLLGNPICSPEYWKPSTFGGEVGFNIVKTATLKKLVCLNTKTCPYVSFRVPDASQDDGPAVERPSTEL

| Compound | IC50 | Ki |
| --- | --- | --- |
| O=NN(CCCl)C(=O)NC1CCCCC1 [LOMUSTINE] | Not Active | – |
| Nc1nc2ccc(OC(F)(F)F)cc2s1 [RILUZOLE] | Not Active | – |
| SODIUM NITROPRUSSIDE | Not Active | Not Active |
| Cc1noc(NS(=O)(=O)c2ccc(N)cc2)c1C [SULFISOXAZOLE] | Not Active | – |
| Cc1cccc(N(C)C(=S)Oc2ccc3ccccc3c2)c1 [TOLNAFTATE] | Not Active | – |
| Cc1oncc1C(=O)Nc1ccc(C(F)(F)F)cc1 [LEFLUNOMIDE] | Not Active | – |
| CC[C@@H](CO)NC(=O)[C@@H]1C=C2c3cccc4[nH]cc(c34)C[C@H]2N(C)C1 [METHYLERGONOVINE] | Not Active | – |
| CCOC(=O)N1CCC(=C2c3ccc(Cl)cc3CCc3cccnc32)CC1 [LORATADINE] | Not Active | – |
| CC(C)(C)NC(=O)[C@@H]1C[C@@H]2CCCC[C@@H]2CN1C[C@@H](O)[C@H](Cc1ccccc1)NC(=O)[C@H](CC(N)=O)NC(=O)c1ccc2ccccc2n1 | Not Active | – |
| CC(=O)[C@@]1(O)CC[C@H]2[C@@H]3C[C@H](C)C4=CC(=O)CC[C@]4(C)[C@H]3CC[C@@]21C | Not Active | – |
| COc1nc(C)nc(Cl)c1NC1=NCCN1 [MOXONIDINE] | Not Active | – |
| C[C@@H]1CN(c2c(F)c(N)c3c(=O)c(C(=O)O)cn(C4CC4)c3c2F)C[C@H](C)N1 [SPARFLOXACIN] | Not Active | – |
| N[C@@H](Cc1ccc(O)c(O)c1)C(=O)O [LEVODOPA] | Not Active | – |

Same assay, conditions: read-out: IC50

| Compound | IC50 [nM] |
| --- | --- |
| Nc1nc2nc[nH]c2c(=S)[nH]1 [THIOGUANINE] | 601 |
